Results from US20110105523A1, “BIFEPRUNOX DERIVATIVES” (priority 2008, published 2011).

Legend:
[1] = biological target: T1, human dopamine D2L receptor (Homo sapiens, UniProt P14416); test: Adenylate cyclase activity (cAMP assay), inhibition of forskolin-stimulated cAMP accumulation in CHO cells; format: cell-based; conditions: for Conversion of cAMP, % of control (mean (±s.e.m.)): control = forskolin-stimulated cAMP accumulation; for EC50: inhibition of forskolin-induced cAMP accumulation, D2L agonism, read-out: pEC50 mean (±s.e.m.) (converted)
T1 construct: host or cells: CHO-K1
Procedure: All compounds were dissolved in DMSO.
For incubation with test compounds (concentrations 10^−6-10^−10M), confluent cultures grown in 24 wells plates were used. Each condition or substance was routinely tested in quadruplicate. Cells were loaded with 1 μCi [^3H]-adenine in 0.5 ml medium/well. After 2 hours, cultures were washed with 0.5 ml PBS containing […] IBMX and forskolin with or without test compound. After aspiration the reaction was stopped with 1 ml trichloroacetic acid 5% (w/v). […] The extract was passed over Dowex (50W-4 200-400 mesh) and aluminiumoxide columns, eluted with water and 0.1M imidazole (pH=7.5). Eluates were mixed with 7 ml of Insta-gel and radioactivity was counted with a scintillation counter. The conversion of the cAMP fraction as compared to combined radioactivity in both cAMP and ATP fractions, and basal activity was subtracted to correct for spontaneous activity.
Dopamine D2L: reference compound: quinpirole; incubation time: 20 min.
Subsequently, the mean of four observations was taken as an estimate for drug-induced, receptor-mediated effects at specified messenger accumulation, expressed as percentage of control values (forskolin-stimulated cAMP accumulation).
By using the non-linear curve-fitting program XL-FIT mean values were plotted against drug concentration (in molar) and sigmoid curve (four parameter logistic curve) was constructed. The maximal forskolin-induced stimulated conversion was taken as maximum value and the maximal inhibition as minimum and these values were fixed during the fitting process.

[2] = biological target: T1, human dopamine D2L receptor; test: Receptor binding, displacement of [3H]-spiperone on CHO cell membranes; conditions: [3H]-spiperone displacement, recombinant human D2L in CHO membranes; s.e.m. in brackets; read-out: pKi value mean ± s.e.m. (converted)
Procedure: The potency of 3′-hydroxy-bifeprunox, 4′-hydroxy-bifeprunox, 3′-sulfate-bifeprunox, 4′-sulfate-bifeprunox and, for comparison, bifeprunox as a ligand on the human dopamine D2L receptor was investigated using a receptor binding assay and determination of functional activity was investigated using a cAMP assay. All compounds were dissolved in DMSO.
The binding of the compounds of the invention to the human D2L receptor was performed using displacement of radioactive-labeled [^3H]-spiperone binding on membranes prepared from Chinese hamster ovary (CHO) cells expressing the recombinant human D2L receptor.
Human dopamine D2L receptors were cloned in CHO-K1 cells and obtained from Dr. D. Grandy, Vollum Institute, Portland, Oreg., USA.
The binding assay has been carried out using [^3H]-spiperone as ligand (see Eur. J. Pharmacol. 46:377-381, 1977). The labeled compound was incubated with or without the test compound, with a preparation from cloned CHO cells carrying the human dopamine D2L receptor. Separation of bound and free ligand was performed by filtration over glassfiber-filters. After two washings, the bound-fraction remained on the filter. Radioactivity trapped on the filter was measured by scintillation counting. Results are expressed as pKi (negative logarithm of the inhibition constant Ki which is calculated form the IC50).

T1 sequence (P14416 whole entry): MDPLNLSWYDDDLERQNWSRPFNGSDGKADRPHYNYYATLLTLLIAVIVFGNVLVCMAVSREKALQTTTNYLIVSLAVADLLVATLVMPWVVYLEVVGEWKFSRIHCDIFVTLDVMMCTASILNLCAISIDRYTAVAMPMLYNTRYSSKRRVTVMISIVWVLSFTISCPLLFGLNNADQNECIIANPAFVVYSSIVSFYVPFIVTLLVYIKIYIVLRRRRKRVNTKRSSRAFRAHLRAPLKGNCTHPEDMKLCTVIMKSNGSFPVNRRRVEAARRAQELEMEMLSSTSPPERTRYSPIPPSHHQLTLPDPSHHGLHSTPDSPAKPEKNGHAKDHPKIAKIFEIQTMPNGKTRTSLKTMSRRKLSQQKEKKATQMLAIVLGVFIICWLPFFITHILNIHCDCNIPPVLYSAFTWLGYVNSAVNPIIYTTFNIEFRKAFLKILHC

| Structure (SMILES) | PS: mean % stimulation (agonism) at 1 μM [1] [%] | Conversion of cAMP, % of control (mean (±s.e.m.)) ([1]; 10^−6M test compound) | Conversion of cAMP, % of control (mean (±s.e.m.)) ([1]; 10^−7M test compound) | Conversion of cAMP, % of control (mean (±s.e.m.)) ([1]; 10^−8M test compound) | Conversion of cAMP, % of control (mean (±s.e.m.)) ([1]; 10^−9M test compound) | Conversion of cAMP, % of control (mean (±s.e.m.)) ([1]; 10^−10M test compound) | EC50 [1] [nM] | Ki [2] [nM] |
| --- | --- | --- | --- | --- | --- | --- | --- | --- |
| O=c1[nH]c2cccc(N3CCN(Cc4cccc(-c5cccc(O)c5)c4)CC3)c2o1 [3′-OH, 7-[4-(3′-hydroxy[1,1′-biphenyl]-3-ylmethyl)-1-piperazinyl]-2(3H)-benzoxazolone] | 49 | 51 (10) % of control | 56 (8) % of control | 63 (7) % of control | 70 (6) % of control | 84 (4) % of control | 0.794 | 12.6 |
| O=c1[nH]c2cccc(N3CCN(Cc4cccc(-c5ccc(O)cc5)c4)CC3)c2o1 [4′-OH, 7-[4-(4′-hydroxy[1,1′-biphenyl]-3-ylmethyl)-1-piperazinyl]-2(3H)-benzoxazolone] | 55 | 45 (4) % of control | 50 (2) % of control | 58 (4) % of control | 59 (3) % of control | 90 (9) % of control | 0.2 | 12.6 |
| O=c1[nH]c2cccc(N3CCN(Cc4cccc(-c5ccccc5)c4)CC3)c2o1 [Bifeprunox, 7-[4-([1,1′-biphenyl]-3-ylmethyl1)-1-piperazinyl]-2(3H)-benzoxazolone monomethanesulphonate] | 31 | 69 (10) % of control | 69 (11) % of control | 84 (12) % of control | 94 (13) % of control | 95 (15) % of control | 6.31 | 39.8 |

Continued, values first:

| PS: mean % stimulation (agonism) at 1 μM [1] [%] | Conversion of cAMP, % of control (mean (±s.e.m.)) ([1]; 10^−6M test compound) | Conversion of cAMP, % of control (mean (±s.e.m.)) ([1]; 10^−7M test compound) | Conversion of cAMP, % of control (mean (±s.e.m.)) ([1]; 10^−8M test compound) | Conversion of cAMP, % of control (mean (±s.e.m.)) ([1]; 10^−9M test compound) | Conversion of cAMP, % of control (mean (±s.e.m.)) ([1]; 10^−10M test compound) | EC50 [1] [nM] | Ki [2] [nM] | Structure (SMILES) |
| --- | --- | --- | --- | --- | --- | --- | --- | --- |
| 51 | 49 (6) % of control | 66 (12) % of control | 79 (6) % of control | 93 (9) % of control | 94 (5) % of control | 12.6 | 12.6 | O=c1[nH]c2cccc(N3CCN(Cc4cccc(-c5cccc(OS(=O)(=O)O)c5)c4)CC3)c2o1 [3′-sulfate, 7-[4-(3′-sulfooxy[1,1′-biphenyl]-3-ylmethyl)-1-piperazinyl]-2(3H)-benzoxazolone] |
| 49 | 51 (16) % of control | 63 (14) % of control | 65 (13) % of control | 72 (13) % of control | 85 (9) % of control | 0.631 | 6.31 | O=c1[nH]c2cccc(N3CCN(Cc4cccc(-c5ccc(OS(=O)(=O)O)cc5)c4)CC3)c2o1 [4′-sulfate, 7-[4-(4′-sulfooxy[1,1′-biphenyl]-3-ylmethyl)-1-piperazinyl]-2(3H)-benzoxazolone] |
